Legend:
Experiment in all cases: relative viability (nuclei count vs DMSO), 5 days (fraction); higher = more cells survive
Dinaciclib + Trametinib = compound: CCc1cnn2c(NCc3ccc[n+]([O-])c3)cc(N3CCCC[C@H]3CCO)nc12 [Dinaciclib] + CC(=O)Nc1cccc(-n2c(=O)n(C3CC3)c(=O)c3c(Nc4ccc(I)cc4F)n(C)c(=O)c(C)c32)c1 [Trametinib] (partner 0.02 µM)
Method in brief: (§1)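 The day after seeding in 1536-well plates, lung cancer cell lines were treated by pin tool with a single drug, or with a fixed anchor-drug dose together with five library-drug doses (not always all listed) in √10 steps. After 5 days, a combined fix-and-stain solution (final 0.05% Triton X-100, 1% formaldehyde, 1 ug/ml Hoechst) was added. Nuclei counted on 4× images gave relative viability as treated counts over vehicle counts, reported as the median of duplicate plates.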

Dinaciclib + Navitoclax = compound: CCc1cnn2c(NCc3ccc[n+]([O-])c3)cc(N3CCCC[C@H]3CCO)nc12 [Dinaciclib] + CC1(C)CCC(c2ccc(Cl)cc2)=C(CN2CCN(c3ccc(C(=O)NS(=O)(=O)c4ccc(N[C@H](CCN5CCOCC5)CSc5ccccc5)c(S(=O)(=O)C(F)(F)F)c4)cc3)CC2)C1 [Navitoclax] (partner 0.5 µM)
Method in brief: as §1

Dinaciclib + Foretinib = compound: CCc1cnn2c(NCc3ccc[n+]([O-])c3)cc(N3CCCC[C@H]3CCO)nc12 [Dinaciclib] + COc1cc2c(Oc3ccc(NC(=O)C4(C(=O)Nc5ccc(F)cc5)CC4)cc3F)ccnc2cc1OCCCN1CCOCC1 [Foretinib] (partner 0.25 µM)
Method in brief: as §1

Dinaciclib + Lapatinib = compound: CCc1cnn2c(NCc3ccc[n+]([O-])c3)cc(N3CCCC[C@H]3CCO)nc12 [Dinaciclib] + CS(=O)(=O)CCNCc1ccc(-c2ccc3ncnc(Nc4ccc(OCc5cccc(F)c5)c(Cl)c4)c3c2)o1 [Lapatinib] (partner 2 µM)
Method in brief: as §1

Dinaciclib + Dasatinib = compound: CCc1cnn2c(NCc3ccc[n+]([O-])c3)cc(N3CCCC[C@H]3CCO)nc12 [Dinaciclib] + Cc1nc(Nc2ncc(C(=O)Nc3c(C)cccc3Cl)s2)cc(N2CCN(CCO)CC2)n1 [Dasatinib] (partner 0.075 µM)
Method in brief: as §1

Row | Cell Line | relative viability (Dinaciclib + Trametinib; first compound 0.009487 µM) | relative viability (Dinaciclib + Trametinib; first compound 0.03 µM) | relative viability (Dinaciclib + Trametinib; first compound 0.09487 µM) | relative viability (Dinaciclib + Trametinib; first compound 0.3 µM) | relative viability (Dinaciclib + Navitoclax; first compound 0.009487 µM) | relative viability (Dinaciclib + Navitoclax; first compound 0.03 µM) | relative viability (Dinaciclib + Navitoclax; first compound 0.09487 µM) | relative viability (Dinaciclib + Navitoclax; first compound 0.3 µM) | relative viability (Dinaciclib + Foretinib; first compound 0.009487 µM) | relative viability (Dinaciclib + Foretinib; first compound 0.03 µM) | relative viability (Dinaciclib + Foretinib; first compound 0.09487 µM) | relative viability (Dinaciclib + Foretinib; first compound 0.3 µM) | relative viability (Dinaciclib + Lapatinib; first compound 0.009487 µM) | relative viability (Dinaciclib + Lapatinib; first compound 0.03 µM) | relative viability (Dinaciclib + Lapatinib; first compound 0.09487 µM) | relative viability (Dinaciclib + Lapatinib; first compound 0.3 µM) | relative viability (Dinaciclib + Dasatinib; first compound 0.009487 µM) | relative viability (Dinaciclib + Dasatinib; first compound 0.03 µM) | relative viability (Dinaciclib + Dasatinib; first compound 0.09487 µM) | relative viability (Dinaciclib + Dasatinib; first compound 0.3 µM)
1 | HCC-366 | 0.274 | 0.0898 | 0.0214 | 0.0233 | 1.01 | 0.11 | 0.0149 | 0.0168 | 0.851 | 0.0324 | 0.042 | 0.0348 | 0.557 | 0.0225 | 0.0184 | 0.0226 | 0.597 | 0.14 | 0.0199 | 0.033
2 | HCC-827 | 0.511 | 0.186 | 0.12 | 0.135 | 1.02 | 0.699 | 0.127 | 0.108 | 1.09 | 0.682 | 0.147 | 0.13 | 0.191 | 0.183 | 0.149 | 0.132 | 0.285 | 0.221 | 0.135 | 0.184
3 | HOP-62 | 0.492 | 0.361 | 0.0804 | 0.0808 | 0.967 | 0.126 | 0.0367 | 0.042 | 1.11 | 0.376 | 0.0923 | 0.0743 | 0.917 | 0.281 | 0.0612 | 0.0566 | 0.662 | 0.33 | 0.0666 | 0.0723
4 | IA-LM | – | – | – | – | 0.695 | 0.0044 | 0.0033 | 0.0072 | 1.01 | 0.0352 | 0.0148 | 0.0125 | 0.73 | 0.0584 | 0.053 | 0.0435 | – | – | – | –
5 | LC-2-ad | 0.921 | 0.405 | 0.148 | 0.15 | 0.401 | 0.0677 | 0.067 | 0.0747 | 0.824 | 0.248 | 0.205 | 0.195 | 0.9 | 0.0784 | 0.058 | 0.0576 | 0.279 | 0.149 | 0.149 | 0.175
6 | LCLC-97TM1 | 0.216 | 0.0795 | 0.0706 | 0.0687 | 0.44 | 0.108 | 0.162 | 0.114 | 0.705 | 0.14 | 0.132 | 0.107 | 0.662 | 0.173 | 0.0769 | 0.0958 | 0.718 | 0.434 | 0.14 | 0.108
7 | LCLC-103H | 0.674 | 0.659 | 0.255 | 0.249 | – | – | – | – | 0.834 | 0.623 | 0.0915 | 0.094 | – | – | – | – | 0.41 | 0.432 | 0.0877 | 0.0685
8 | LK-2 | 0.574 | 0.152 | 0.133 | 0.125 | 0.761 | 0.123 | 0.0967 | 0.102 | 1.13 | 0.267 | 0.164 | 0.142 | 0.712 | 0.182 | 0.102 | 0.176 | 0.267 | 0.141 | 0.115 | 0.144
9 | LOU-NH91 | 0.756 | 0.405 | 0.281 | 0.264 | 0.707 | 0.254 | 0.151 | 0.138 | 0.971 | 0.406 | 0.214 | 0.216 | 0.738 | 0.302 | 0.254 | 0.238 | 0.564 | 0.287 | 0.243 | 0.179
10 | LU99A | 0.511 | 0.14 | 0.127 | 0.146 | 0.363 | 0.13 | 0.126 | 0.121 | 0.545 | 0.183 | 0.128 | 0.154 | 0.759 | 0.121 | 0.13 | 0.127 | 0.514 | 0.142 | 0.115 | 0.124
11 | NCI-H358 | 0.109 | 0.0821 | 0.0838 | 0.102 | – | – | – | – | 0.493 | 0.0864 | 0.0847 | 0.0882 | 0.341 | 0.216 | 0.196 | 0.188 | 0.182 | 0.0918 | 0.0845 | 0.0762
12 | NCI-H441 | 0.42 | 0.156 | 0.137 | 0.114 | 0.655 | 0.11 | 0.135 | 0.128 | 0.789 | 0.204 | 0.174 | 0.222 | – | – | – | – | 0.562 | 0.186 | 0.146 | 0.144
13 | NCI-H650 | 0.964 | 0.189 | 0.122 | 0.13 | – | – | – | – | 1.02 | 0.182 | 0.165 | 0.142 | 0.566 | 0.171 | 0.0978 | 0.146 | 0.36 | 0.169 | 0.154 | 0.164
14 | NCI-H661 | 0.512 | 0.162 | 0.17 | 0.161 | – | – | – | – | 0.851 | 0.213 | 0.202 | 0.199 | 0.41 | 0.183 | 0.181 | 0.191 | 0.38 | 0.144 | 0.17 | 0.132
15 | NCI-H1563 | – | – | – | – | – | – | – | – | 1.14 | 0.504 | 0.327 | 0.291 | 1.24 | 0.489 | 0.411 | 0.423 | 0.448 | 0.307 | 0.133 | 0.123
16 | NCI-H1703 | – | – | – | – | 1.19 | 0.117 | 0.0887 | 0.114 | 0.39 | 0.319 | 0.144 | 0.12 | 1.01 | 0.133 | 0.114 | 0.134 | – | – | – | –
17 | NCI-H1792 | 0.432 | 0.361 | 0.0776 | 0.0462 | 0.678 | 0.174 | 0.0483 | 0.0639 | – | – | – | – | 0.848 | 0.808 | 0.0608 | 0.0733 | 0.823 | 0.631 | 0.439 | 0.183
18 | NCI-H2342 | 0.82 | 0.847 | 0.343 | 0.31 | – | – | – | – | 0.998 | 0.739 | 0.273 | 0.274 | – | – | – | – | 0.333 | 0.289 | 0.248 | 0.23
19 | SW 900 | 0.805 | 0.477 | 0.177 | 0.155 | – | – | – | – | 0.874 | 0.462 | 0.0641 | 0.0639 | – | – | – | – | 0.61 | 0.246 | 0.0591 | 0.0806
